Measurements as given in patent US20230013669A1, “Antibacterial Treatment Using a Cannabinoid and an Active Agent” (priority 2019, published 2023).
“And” between values parts separate entries of the source, which are not always exact repeats. Equal entries are not always repeated.

System: Klebsiella pneumoniae ATCC 13883 (GN_003 / GN_004)
Test: Synergy of cannabidiol with cell-wall disrupting agent (CBD MIC in combination, FICI)
Assay type: cell-based
Settings: Klebsiella pneumoniae ATCC 700603
Protocol: The compounds were stored short term at 4° C.
Analysis was performed using Microsoft Excel.

[1] = CBD with MCC_6442, listed as CBD

## C=C(C)C1CCC(C)=CC1c1c(O)cc(CCCCC)cc1O (centres unmarked) [Cannabidiol, 2-[3-methyl-6-(1-methylethenyl)-2-cyclohexen-1-yl]-5-pentyl-1,3-benzenediol]
CBD with Cefotetan, listed as CBD
  FICI range (MIC table): 1-1.5 and 0.5-1.25
CBD with Ceftazidime at 4 μg/mL, listed as CBD
  FICI: 1
CBD with Ceftazidime at 8 μg/mL, listed as CBD
  FICI: 1
CBD with Ceftazidime at 16 μg/mL, listed as CBD
  FICI: 1.001 and 1
CBD with Ceftazidime at 32 μg/mL, listed as CBD
  FICI: 1.002 and 1.001
CBD with Ceftazidime at 64 μg/mL, listed as CBD
  FICI: 0.00391 and 0.001957
CBD with Ceftazidime at 128 μg/mL, listed as CBD
  FICI: 0.007816 and 0.00391
CBD with Ceftazidime
  FICI range (MIC table): 0-1
CBD with Cefuroxime at 1 μg/mL
  FICI: 1.016
CBD with Cefuroxime at 2 μg/mL
  FICI: 1.031
CBD with Cefuroxime at 4 μg/mL
  FICI: 1.0625
CBD with Cefuroxime at 8 μg/mL
  FICI: 1.125
CBD with Cefuroxime at 16 μg/mL
  FICI: 1.25
CBD with Cefuroxime at 32 μg/mL
  FICI: 0.5
CBD with Colistin at 0.031 μg/mL
  FICI: 1.03
CBD with Colistin at 0.062 μg/mL
  FICI: 1.06
CBD with Colistin at 0.25 μg/mL
  FICI: 1.25
CBD with Colistin at 0.5 μg/mL
  FICI: 0.5
CBD with Colistin at 1 μg/mL
  FICI: 1
CBD with Colistin
  FICI range (MIC table): 0.5-1.25
  FICI range (Synergy table): 0.5-1.25
[1]
  FICI range (MIC table): 0.25-1.13 and 0.13-1.06
  FICI range (Synergy table): 0.25-0.5 and 0.13-0.25
CBD with MCC_6442 at 0.25 μg/mL
  FICI: 1.031
CBD with MCC_6442 at 0.25 μg/mL, listed as CBD
  FICI: 1.016
CBD with MCC_6442 at 0.5 μg/mL, listed as CBD
  FICI: 1.0625 and 1.031
CBD with MCC_6442 at 1 μg/mL, listed as CBD
  FICI: 1.125 and 1.0625
CBD with MCC_6442 at 2 μg/mL, listed as CBD
  FICI: 0.2539 and 0.1289
CBD with MCC_6442 at 4 μg/mL, listed as CBD
  FICI: 0.501 and 0.251
CBD with Ticarcillin at 2 μg/mL
  FICI: 1.002
CBD with Ticarcillin at 4 μg/mL
  FICI: 1.004
CBD with Ticarcillin at 16 μg/mL
  FICI: 1.016
CBD with Ticarcillin at 32 μg/mL
  FICI: 1.031
CBD with Ticarcillin at 64 μg/mL
  FICI: 1.0625
CBD with Ticarcillin
  FICI range (MIC table): 1-1.06
Cefotetan at 0.015 μg/mL
  CBD MIC with Cefotetan: >256 µg/mL
Cefotetan at 0.031 μg/mL
  CBD MIC with Cefotetan: >256 µg/mL
Cefotetan at 0.062 μg/mL
  CBD MIC with Cefotetan: >256 µg/mL
Cefotetan at 0.25 μg/mL
  CBD MIC with Cefotetan: >256 µg/mL
Cefotetan at 0.5 μg/mL
  CBD MIC with Cefotetan: 0.001 µg/mL
Ceftazidime at 0.015 μg/mL as headed in Table 64
  CBD MIC with Ceftazidime: >256 µg/mL
Ceftazidime at 0.031 μg/mL as headed in Table 64
  CBD MIC with Ceftazidime: >256 µg/mL
Ceftazidime at 0.062 μg/mL as headed in Table 64
  CBD MIC with Ceftazidime: >256 µg/mL
Ceftazidime at 0.25 μg/mL as headed in Table 64
  CBD MIC with Ceftazidime: 0.001 µg/mL
Ceftazidime at 0.5 μg/mL as headed in Table 64
  CBD MIC with Ceftazidime: 0.001 µg/mL
Ceftazidime at 4 μg/mL (Table 66)
  CBD MIC with Ceftazidime: >32 µg/mL
Ceftazidime at 8 μg/mL (Table 66)
  CBD MIC with Ceftazidime: >32 µg/mL
Ceftazidime at 16 μg/mL (Table 66)
  CBD MIC with Ceftazidime: >32 µg/mL
Ceftazidime at 32 μg/mL (Table 66)
  CBD MIC with Ceftazidime: >32 µg/mL
Ceftazidime at 64 μg/mL (Table 66)
  CBD MIC with Ceftazidime: 0.001 µg/mL
Ceftazidime at 128 μg/mL (Table 66)
  CBD MIC with Ceftazidime: 0.001 µg/mL
Cefuroxime at 32 μg/mL
  CBD MIC with Cefuroxime: 0.001 µg/mL
Colistin at 0.5 μg/mL
  CBD MIC with Colistin: 0.001 µg/mL
